Measurements: patent publication US20040109896A1, “Aqueous suspension eyedrops and process for producing the same” (priority 2001, published 2004)

Key:
[1] = Laser diffraction particle size distribution analysis of acyclovir fine crystals; format: physicochemical; settings: USP grade sterilized acyclovir fine crystals
Description: USP grade, sterilized acyclovir was used as fine crystals of acyclovir without any processing. Through laser diffraction particle size distribution analysis, the crystals were determined to have an average particle size of 25.9 μm.

herpes virus = settings: Crumpaker et al., Antimicrob. Agents Chemother. 15, 642 (1979); cited from earlier work

**Q.** Which average particle size [1] does the source give for `Nc1nc2c(ncn2COCCO)c(=O)[nH]1` [acyclovir, 9-[(2-hydroxyethoxy)methyl]guanine] here?
**A.** 25.9 μm

**Q.** And the “ID50 (50% inhibition level) of acyclovir against herpes virus” value (herpes virus)?
**A.** approximately 0.03 μg/mL
